{"source": "EPA's ToxValDB 9.5 (doi:10.2903/j.efsa.2009.213r)", "key": {"[1]": {"system": "Anas platyrhynchos", "details": "oral, mortality"}, "[2]": {"system": "Canidae", "details": "acute; oral; Dog Other; mortality"}, "[3]": {"system": "Tagia sp.", "details": "acute; mortality"}, "[4]": {"system": "Rattus norvegicus", "details": "for NOAEL: histopathology: nonneoplastic"}, "[5]": {"system": "Mus musculus", "details": "chronic; duration: 2 years; histopathology: nonneoplastic"}, "[6]": {"system": "Oncorhynchus mykiss", "details": "mortality"}, "[7]": {"system": "Daphnia magna", "details": "chronic/long-term; duration: 21 days; reproduction"}, "[8]": {"system": "Oryctolagus sp.", "details": "developmental; development"}, "[9]": {"system": "Apis mellifera", "details": "acute, duration: 48 hours, mortality"}, "[10]": {"system": "Pleurozium sp.", "details": "acute; duration: 72 hours; biomass"}, "[11]": {"system": "Colinus virginianus"}, "[12]": {"system": "Aphidius rhopalosiphi", "assay": "LR50; higher = less toxic", "details": "not reported; mortality"}, "[13]": {"system": "Typhlodromus pyri", "assay": "LR50; higher = less toxic", "details": "not reported; mortality"}}, "data": [{"smiles": "CCOc1ccc(C(C)(C)COCc2cccc(Oc3ccccc3)c2)cc1", "note": "[Etofenprox]", "values": [{"measurement": "LD50", "setting": "[1]; acute, unspecified", "result": "> 2000", "unit": "mg/kg"}, {"measurement": "LC50", "setting": "[1]; short-term, feed", "result": "> 1280", "unit": "mg/kg-day"}, {"measurement": "LD50", "setting": "[2]", "result": "> 5000", "unit": "mg/kg"}, {"measurement": "LC50", "setting": "[3]", "result": "> 47.2", "unit": "mg/kg"}, {"measurement": "LD50", "setting": "[4]; acute, oral, mortality", "result": "> 2000", "unit": "mg/kg"}, {"measurement": "NOAEL", "setting": "[4]; chronic, duration: 2 years", "result": 3.7, "unit": "mg/kg-day"}, {"measurement": "NOAEL", "setting": "[4]; subchronic, duration: 13 weeks, oral, diet", "result": 20, "unit": "mg/kg-day"}, {"measurement": "NOAEL", "setting": "[5]", "result": 3.1, "unit": "mg/kg-day"}, {"measurement": "LC50", "setting": "[6]; acute, duration: 96 hours", "result": 2.7, "unit": "ng/mL"}, {"measurement": "NOEC", "setting": "[6]; chronic/long-term, duration: 21 days", "result": 0.0021, "unit": "mg/L"}, {"measurement": "NOEC", "setting": "[7]", "result": "5.4e-05", "unit": "mg/L"}, {"measurement": "NOAEL", "setting": "[8]", "result": 100, "unit": "mg/kg-day"}, {"measurement": "LD50", "setting": "[9]; dermal", "result": 0.015, "unit": "µg/piece"}, {"measurement": "LD50", "setting": "[9]; oral, unspecified", "result": 0.024, "unit": "µg/piece"}, {"measurement": "NOEC", "setting": "[10]", "result": 0.15, "unit": "mg/L"}, {"measurement": "LC50", "setting": "[11]; acute, oral, diet, mortality", "result": "> 806", "unit": "mg/kg-day"}, {"measurement": "NOEL", "setting": "[11]; reproduction developmental", "result": 89.6, "unit": "mg/kg-day"}, {"measurement": "LR50", "setting": "[12]", "result": 0.42, "unit": "g/ha"}, {"measurement": "LR50", "setting": "[13]", "result": 0.7, "unit": "g/ha"}]}]}
